Reference: patent publication US10273217B2, “Triazole derivatives” (Hoffmann-La Roche Inc., priority 2015, dated 2019)

How the values were obtained:
human EAAT3 = target: T1, human EAAT3 (Homo sapiens, UniProt P43005); assay: FLIPR Membrane Potential (FMP) assay, antagonist potency at human EAAT3; type: cell-based; settings: HEK-293 cells stably expressing human EAAT3; L-glutamate as agonist at EC80; Kb from IC50 by Cheng-Prusoff equation
T1 construct: expressed in transfected cells
T1 sequence (P43005 1-524): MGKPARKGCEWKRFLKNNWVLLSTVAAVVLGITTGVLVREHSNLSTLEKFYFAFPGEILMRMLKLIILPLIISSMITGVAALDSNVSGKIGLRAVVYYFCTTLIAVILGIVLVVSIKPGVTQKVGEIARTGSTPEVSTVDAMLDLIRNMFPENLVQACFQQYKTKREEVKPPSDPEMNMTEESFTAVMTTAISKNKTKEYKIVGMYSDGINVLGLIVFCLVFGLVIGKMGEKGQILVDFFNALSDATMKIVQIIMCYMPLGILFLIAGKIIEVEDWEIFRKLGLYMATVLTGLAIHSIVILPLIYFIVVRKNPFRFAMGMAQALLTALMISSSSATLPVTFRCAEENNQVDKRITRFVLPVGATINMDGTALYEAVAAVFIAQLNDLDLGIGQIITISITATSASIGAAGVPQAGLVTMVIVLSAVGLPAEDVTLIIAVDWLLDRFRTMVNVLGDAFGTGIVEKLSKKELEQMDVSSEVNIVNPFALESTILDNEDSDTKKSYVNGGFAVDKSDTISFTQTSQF
Description: The FLIPR Membrane Potential (FMP) Assay
HEK-293 cells stably expressing human EAAT3 were seeded at 55 000 cells/well in growth medium (DMEM glutamate free (Invitrogen 11960-044), 1% Pen Strep (10 ml/l GIBCO BRL N°15140-023), 10% FCS non dialysed heat inactivated, 5 mg/l puromycin) in poly-D-lysine treated 96-well black microtiter plates with clear-bottom. After 24 h, the growth medium was removed and 100 μl/well of Krebs buffer (140 mM NaCl, 4.7 mM KCl, 2.5 mM CaCl2, 1.2 mM MgCl2, 11 mM HEPES, 10 mM D-glucose, pH=7.4) added. The cells were then loaded by adding 100 μl/well FMP assay dye (FLIPR Membrane Potential assay reagent, Molecular Devices). The 96-well plates were then incubated at 37° C. for 1 h. The depolarization of the cells will cause more dye to enter in the cells, where it will bind to intracellular proteins and lipids and cause an increase in the fluorescence signal. Antagonist potency at human EAAT3 was determined by using L-glutamate as agonist at a concentration which gives 80% of the maximum response. The antagonists were applied 15 min before the application of the agonist L-glutamate. The assays were performed at room temperature and measurements done by using a Fluorometric Imaging Plate Reader (FLIPR, Molecular Devices) and filter #2. Responses were measured as peak increase in fluorescence minus basal (i.e. fluorescence without addition of L-glutamate). Kb was determined using the Cheng-Prusoff equation Kb=IC50/[1+(A/EC50)], where IC50 is the concentration of the antagonist producing 50% inhibition, A is the concentration of the agonist against which the IC50 is being determined (at EC80) and EC50 is the concentration of the agonist producing 50% […].

SMILES | Kb (human EAAT3) [nM] | melting point [°C]
CC(C)(C)NC(=O)c1cc(-c2ccc(Cl)cc2)cc(-n2cnnc2C(C)(C)O)c1 [Example 27, N-tert-Butyl-3-(4-chlorophenyl)-5-[3-(2-hydroxypropan-2-yl)-1,2,4-triazol-4-yl]-benzamide] | 64 | 163
COc1ccc(-c2cc(C(=O)NC(C)(C)C)cc(-n3cnnc3C(C)C)c2)cc1 [Example 29, N-tert-Butyl-3-(4-methoxyphenyl)-5-(3-propan-2-yl-1,2,4-triazol-4-yl)-benzamide] | 290 | 107
Cc1ccc(-c2cc(C(=O)NC(C)(C)C)cc(-n3cnnc3C(C)C)c2)cc1 [Example 33, N-tert-Butyl-3-(4-methyl-phenyl)-5-(3-propan-2-yl-1,2,4-triazol-4-yl)-benzamide] | 100 | 100
CC(C)c1nncn1-c1cc(C(=O)NC(C)(C)C)cc(-c2ccc(C#N)cc2)c1 [Example 34, N-tert-Butyl-3-(4-cyano-phenyl)-5-(3-propan-2-yl-1,2,4-triazol-4-yl)-benzamide] | 220 | 290
CC(C)c1nncn1-c1cc(C(=O)NC(C)(C)C)cc(-c2ccc(C3CC3)cc2)c1 [Example 35, N-tert-Butyl-3-(4-cyclopropyl-phenyl)-5-(3-propan-2-yl-1,2,4-triazol-4-yl)-benzamide] | 130 | 120
CC(C)(NC(=O)c1cc(-c2ccc(Cl)cc2)cc(-n2cnnc2CO)c1)C1CC1 [Example 37, 3-(4-Chlorophenyl)-N-(2-cyclopropyl-propan-2-yl)-5-[3-(hydroxymethyl)-1,2,4-triazol-4-yl]-benzamide] | 150 | 120

Continued, values first:

Kb (human EAAT3) [nM] | melting point [°C] | SMILES
160 | 115 | CC(C)c1nncn1-c1cc(C(=O)NC(C)(C)C)cc(-c2ccc(F)c(F)c2)c1 [Example 28, N-tert-Butyl-3-(3,4-difluorophenyl)-5-(3-propan-2-yl-1,2,4-triazol-4-yl)-benzamide]
100 | 135 | CC(C)c1nncn1-c1cc(C(=O)NC(C)(C)C)cc(-c2ccc(Cl)c(F)c2)c1 [Example 30, N-tert-Butyl-3-(4-chloro-3-fluorophenyl)-5-(3-propan-2-yl-1,2,4-triazol-4-yl)-benzamide]
98 | 106 | Cc1cc(-c2cc(C(=O)NC(C)(C)C)cc(-n3cnnc3C(C)C)c2)ccc1F [Example 31, N-tert-Butyl-3-(4-fluoro-3-methyl-phenyl)-5-(3-propan-2-yl-1,2,4-triazol-4-yl)-benzamide]
120 | 109 | Cc1ccc(-c2cc(C(=O)NC(C)(C)C)cc(-n3cnnc3C(C)C)c2)cc1F [Example 32, N-tert-Butyl-3-(3-fluoro-4-methyl-phenyl)-5-(3-propan-2-yl-1,2,4-triazol-4-yl)-benzamide]
